Assay results: US20060079453A1, “Hla binding peptides and their uses” (priority 2002, published 2006)
Where two headings read alike, the source gives them in different places. No end group written: not given here.

What was measured:
Test in all cases: biochemical
Assay type in all cases: binding
HLA-B*4002 = HLA-B*4002 (Homo sapiens, UniProt P01889, A65T/A93T/A95T/D138N/D201E/D98Y/E176V/E204Q/E69K/K202T/N87E/Q56L/Q94N/R180L/S48T/Y33H/Y91S)
HLA-B*4403 = HLA-B*4403 (Homo sapiens, UniProt P01889, A223V/A65T/A93T/A95T/D201E/D98Y/E176V/E187L/E204Q/E69K/G107R/H137Y/K202T/L105A/L119I/N104T/N87E/Q56L/Q94N/R106L/R155S/R180L/S101N/S121R/S35A/S48T/T118I/V36M/W191S/Y140D/Y91S)
HLA-B*4001 = HLA-B*4001 (Homo sapiens, UniProt P01889, A65T/A93T/A95T/D138N/D98Y/E176V/E69K/N87E/Q56L/Q94N/R180L/S121R/S35A/S48T/T167S/V36M/W171L/Y33H/Y91S)
HLA-B*1801 = HLA-B*1801 (Homo sapiens, UniProt P01889, A329T/A93T/A95T/C349S/D201E/D54G/D98Y/E176V/E187T/E204Q/E69T/K202T/Q94N/R155S/R180L/S121R/V306I/Y140S/Y195H/Y33H/Y91S)
HLA-B*4402 = HLA-B*4402 (Homo sapiens, UniProt P01889, A223V/A65T/A93T/A95T/D201E/D98Y/E176V/E187L/E204Q/E69K/G107R/H137Y/K202T/L105A/L119I/N104T/N87E/Q56L/Q94N/R106L/R155S/R180D/S101N/S121R/S35A/S48T/T118I/V36M/W191S/Y140D/Y91S)
HLA-B*4501 = HLA-B*4501 (Homo sapiens, UniProt P01889, A329T/A65T/A93T/A95T/C349S/D138N/D201E/D98Y/E176V/E187L/E204Q/E69K/H137Y/K202T/L119W/N87E/Q56L/Q94N/R155S/R180D/S121R/S35A/S48T/V127L/V306I/V36M/W191S/Y140L/Y33H/Y91S)

Molecule	IC50 (HLA-B*4001)	IC50 (HLA-B*4403)	IC50 (HLA-B*1801)	IC50 (HLA-B*4402)	IC50 (HLA-B*4002)	further results
CC[C@H](C)[C@H](NC(=O)[C@@H](NC(=O)[C@H](CS)NC(=O)[C@@H](NC(=O)[C@@H]1CCCN1C(=O)[C@@H]1CCCN1C(=O)[C@H](CCC(N)=O)NC(=O)[C@@H]1CCCN1C(=O)[C@H](CC(C)C)NC(=O)[C@H](CCCNC(=N)N)NC(=O)[C@H](CCC(=O)O)NC(=O)CN)[C@@H](C)CC)[C@@H](C)O)C(=O)O						IC50 (HLA-B*4002; B*4002): 3.9 nM; IC50 (HLA-B*4403; B*4403): 2.5 nM
AEGIVTGQY						IC50 (HLA-B*4001; B*4001): 6460 nM; IC50 (HLA-B*4403; B*4403): 12 nM; IC50 (HLA-B*1801; B*1801): 7180 nM; IC50 (HLA-B*4402; B*4402): 255 nM; IC50 (HLA-B*4501; B*4501): 418 nM
AEIPTRVNY						IC50 (HLA-B*4001; B*4001): 7830 nM; IC50 (HLA-B*4002; B*4002): 5440 nM; IC50 (HLA-B*4403; B*4403): 23 nM; IC50 (HLA-B*1801; B*1801): 1690 nM
AEMGKFKYSF						IC50 (HLA-B*4002; B*4002): 3.8 nM; IC50 (HLA-B*4403; B*4403): 31 nM; IC50 (HLA-B*1801; B*1801): 155 nM; IC50 (HLA-B*4402; B*4402): 18 nM
AEMGKGSFKY						IC50 (HLA-B*4001; B*4001): 6430 nM; IC50 (HLA-B*4002; B*4002): 3820 nM; IC50 (HLA-B*4403; B*4403): 90 nM; IC50 (HLA-B*1801; B*1801): 1620 nM; IC50 (HLA-B*4501; B*4501): 305 nM
AENDWVTVY	954 nM	165 nM	324 nM	96 nM		
AENLDVTVY	220 nM	340 nM		673 nM	12100 nM	
AENLKVTVY	7750 nM	487 nM	138 nM	253 nM		IC50 (HLA-B*4501): 9620 nM
AENLTVTVY	689 nM	208 nM		327 nM		IC50 (HLA-B*4501): 793 nM
AENLVVTVY	876 nM	203 nM	62 nM		1340 nM	IC50 (HLA-B*4501): 718 nM
AENLWDTVY	1140 nM	68 nM	775 nM		2090 nM	
AENLWFTVY	699 nM	62 nM	360 nM		668 nM	IC50 (HLA-B*4501): 90 nM
AENLWKTVY	850 nM	383 nM	913 nM		406 nM	
AENLWLTVY	1700 nM	226 nM	666 nM	647 nM	884 nM	
AENLWNTVY	1340 nM	81 nM	336 nM	66 nM	957 nM	
AENLWTTVY	246 nM	50 nM		51 nM		
AENLWVDVY	700 nM	92 nM	415 nM	334 nM	3440 nM	
AENLWVFVY	857 nM	310 nM		348 nM		
AENLWVNVY		76 nM		159 nM		IC50 (HLA-B*4501): 266 nM
